Assay results published in patent US9999760B2, “DVDMS sensitizer for cancer sonodynamic therapy” (priority 2015, dated 2018).

How the values were obtained:
skin = experiment: Dermatological phototoxicity and skin retention after treatment; parameters: species or system patient; settings: in vivo
sarcoma 180 solid tumors = experiment: Sonodynamic antitumor effect in mice bearing sarcoma 180 solid tumors; type: in vivo
Description: In order to determine the optimum timing of ultrasound exposure after administration of DVDMS, a three-dimensional optical imaging system (IVIS spectrum) was used to observe the biodistribution of DVDMS in S180 tumor. The antitumor effects were estimated by the tumor inhibition ratio (volume and weight) after sonodynamic therapy. […] A significant synergistic effect of ultrasound combined with DVDMS was obtained when the load power indicated 4 W and DVDMS dose was above 2 mg/kg. […] Conclusions: DVDMS is a potential sensitizer for sonodynamic cancer therapy. The antitumor effect of ultrasound could be enhanced in the presence of DVDMS, which might be involved in a sonochemical mechanism.

[1] = tested on: peripheral blood mononuclear cells, spleen lymphocytes; experiment: MTT assay of cytotoxicity in normal cells; type: cell-based, ICR mice
Description: (§1) Two kinds of leukemia cells (K562, U937) as main tumor cell models and cells (peripheral blood mononuclear cells, spleen lymphocytes) separated from healthy ICR mice as normal cell models were used. The multivolume spectrophotometer system and fluorescence spectrophotometer were used to determine the spectral characteristics of DVDMS. The uptake of DVDMS by tumor cells and normal cells was measured by flow cytometry. The MTT assay was used to examine the cytotoxicity and sonotoxicity of DVDMS.

brain stem tumor = experiment: Clinical cases of SDT for tumors of the brain stem; type: in vivo, patient
Description: Below are two typical clinical cases where SDT was selected for treatment of tumors of the brain stem. For Photofrin™ the dosage was 2 mg/kg of body weight. For DVDMS, the dosage was 0.2 mg/kg of body weight, a factor of ten less than Photofrin™. The ultrasound frequency was 0.5 to 1 MHz and the ultrasound power was 0.1 W/cm^2 to 1.5 W/cm^2. Ultrasound treatment is delayed after injection to permit absorbance of the sonodynamic compound into the tumor or other hyperproliferative tissue. In the case of Photofrin™ the delay is extensive, e.g. 20 to 30 hours. […] Due to differential absorption times into tumor, patient was intravenously injected with Photofrin™ 24 hours before ultrasound treatment and DVDMS was intravenously injected two hours prior to ultrasound treatment. Treatment occurred each time for 20-30 minutes and total time to treat three times was 72 hours.

[2] = tested on: tumor cells (K562, U937) and normal cells; experiment: Cellular uptake by flow cytometry in tumor cells and normal cells; type: cell-based; settings: tumor cells compared with normal healthy cells
Description: as §1

[3] = tested on: leukemia cells (K562, U937); experiment: MTT assay of cytotoxicity and sonotoxicity in leukemia cells; type: cell-based
Description: as §1

[4] = tested on: cancerous and normal cells; experiment: Autofluorescence intensity and singlet oxygen production in cells; type: cell-based; settings: compared with other photosensitizers / Photofrin
ECA-109 cells = experiment: Sonodynamic therapy in ECA-109 cells; type: cell-based
Source text: Abundant intracellular reactive oxygen species (ROS) was found in the SDT groups, and the cytotoxicity induced by SDT was effectively remitted by ROS scavengers. […] Release of cytochrome C, an increased rate of apoptosis, and activated apoptosis protein were detected in the SDT group. In addition, relatively severe cell damage was observed on scanning electron microscopy after treatment with DVDMS and SDT.

[5] = Spectral characteristics (absorption and fluorescence emission spectra); type: physicochemical
Description: as §1

4T1 mammary cancer = experiment: Photodynamic therapy in 4T1 mammary cancer-bearing mice; type: in vivo; settings: for tumor volume inhibition ratio: 17th day
Description: At the beginning, we have pointed out that DVDMS is an active component isolated from Photofrin™ II. So it would be very interesting to compare the in vivo anti-cancer efficacy of DVDMS-PDT with PHOTOFRIN™-PDT (PF-PDT).
Representative mice were photographed at 6, 12, or 18 days after the corresponding treatments. […] However, tumor size decreased in a dose-dependent manner with increasing DVDMS and light exposure.
The tumor volume and tumor weight results were evaluated for each group.
On the 19th day, the tumors were photographed and the average tumor weight in each group was calculated.

C=Cc1c(C)c2cc3nc(cc4[nH]c(cc5nc(cc1[nH]2)C(C)=C5C(C)OC(C)C1=C(C)c2cc5[nH]c(cc6nc(cc7[nH]c(cc1n2)c(C)c7CCC(=O)[O-])C(CCC(=O)[O-])=C6C)c(C)c5C=C)c(C)c4CCC(=O)[O-])C(CCC(=O)[O-])=C3C.[Na+].[Na+].[Na+].[Na+] (stereo not shown) [DVDMS]
dermatological phototoxicity (skin): lacking dermatological phototoxicity | tumor weight inhibition ratio (sarcoma 180 solid tumors; DVDMS alone, no ultrasound): 23.15% | biodistribution (IVIS spectrum optical imaging) (sarcoma 180 solid tumors; S180 tumor-bearing mice): preferential localization in tumors, but a low accumulation in most normal tissues | metastasis (sarcoma 180 solid tumors; SDT-treated mice compared with the control group): no metastasis occurred | tumor volume inhibition ratio (sarcoma 180 solid tumors; day 14 after DVDMS-SDT): 56.27% | tumor weight inhibition ratio (sarcoma 180 solid tumors; synergistic treatment (ultrasound combined with DVDMS)): 55.37% | cytotoxicity to normal cells [1]: little cytotoxicity | time to what appears to be complete remission (brain stem tumor; SDT, 0.2 mg/kg): ≤ 30 days | absorbance into the tumor after injection (brain stem tumor; compared with Photofrin): absorbance is much quicker | efficacy in sonic treatment relative to Photofrin II (brain stem tumor; injected into a host): about ten times higher | cranial MRI on review after SDT treatment (brain stem tumor; patient, 0.2 mg/kg): tumor was absorbed, brain stem edema was significantly reduced | head MRI 30 days after treatment (brain stem tumor; patient, 0.2 mg/kg): ventral brain stem tumor has disappeared | cellular uptake and accumulation [2]: quick cellular uptake and selective accumulation in tumor cells | sonotoxicity: cell-damaging effect of ultrasound in the presence of DVDMS ([3]; MTT, under appropriate conditions): significantly enhanced | cytotoxicity by the MTT method ([3]; without ultrasound): dose dependent | autofluorescence intensity [4]: significantly higher | singlet oxygen production efficiency [4]: significantly higher | subcellular location (ECA-109 cells): mainly to the mitochondria | SDT cytotoxicity (ECA-109 cells; compared with hematoporphyrin): more cytotoxic | absorption spectra, maximum peak [5]: 359 nm | fluorescence emission [5]: 642 nm | tumor size versus PF group (4T1 mammary cancer; 2 mg/kg DVDMS vs 10 mg/kg PF, same light exposure 100 J/cm^2): less than in the 10 mg/kg PF group | tumor volume inhibition ratio (4T1 mammary cancer; 1 mg/kg DVDMS+50 J/cm^2, vs control): 38.51% | tumor volume inhibition ratio (4T1 mammary cancer; 2 mg/kg DVDMS alone, vs control): 7.42% | tumor volume inhibition ratio (4T1 mammary cancer; 2 mg/kg DVDMS+50 J/cm^2, vs control): 59.23% | tumor volume inhibition ratio (4T1 mammary cancer; 2 mg/kg DVDMS+100 J/cm^2, vs control): 66.97% | tumor volume inhibition ratio (4T1 mammary cancer; 2 mg/kg DVDMS+150 J/cm^2, vs control): 78.12% | tumor volume inhibition ratio (4T1 mammary cancer; group (2) mg/kg DVDMS+50 J/cm^2 (dose not given), vs control): 18.61% | survival of tumor-bearing mice (4T1 mammary cancer; DVDMS-PDT compared to control and DVDMS-only groups (p<0.01)): significantly prolonged | survival of tumor-bearing mice versus PF-PDT (4T1 mammary cancer; DVDMS-PDT vs PF-PDT (p<0.05)): more effective than PF-PDT | tumor volume and tumor weight (4T1 mammary cancer; nineteen days after treatment, DVDMS plus light exposure vs control or DVDMS alone): significantly lower
